In ChEMBL document CHEMBL4373684, “Synthesis of new lophine-carbohydrate hybrids as cholinesterase inhibitors: cytotoxicity evaluation and molecular modeling” (Medchemcomm, 2019):

Key:
in vitro [1] = settings: PAMPA
Description: Effective permeability of compound incubated for 8 hrs by PAMPA

in vitro [2] = settings: PAMPA; remark: listed apart in the source
Description: Fraction absorbed of the compound by PAMPA

Acetylcholinesterase = target: T1, Acetylcholinesterase (Mus musculus, UniProt P21836); assay: Inhibition of AChE in Swiss mouse brain using acetylthiocholine iodide as substrate incubated for 10 mins followed by substrate addition and measured after 10 mins; type: tissue-based
T1 sequence (P21836 whole entry): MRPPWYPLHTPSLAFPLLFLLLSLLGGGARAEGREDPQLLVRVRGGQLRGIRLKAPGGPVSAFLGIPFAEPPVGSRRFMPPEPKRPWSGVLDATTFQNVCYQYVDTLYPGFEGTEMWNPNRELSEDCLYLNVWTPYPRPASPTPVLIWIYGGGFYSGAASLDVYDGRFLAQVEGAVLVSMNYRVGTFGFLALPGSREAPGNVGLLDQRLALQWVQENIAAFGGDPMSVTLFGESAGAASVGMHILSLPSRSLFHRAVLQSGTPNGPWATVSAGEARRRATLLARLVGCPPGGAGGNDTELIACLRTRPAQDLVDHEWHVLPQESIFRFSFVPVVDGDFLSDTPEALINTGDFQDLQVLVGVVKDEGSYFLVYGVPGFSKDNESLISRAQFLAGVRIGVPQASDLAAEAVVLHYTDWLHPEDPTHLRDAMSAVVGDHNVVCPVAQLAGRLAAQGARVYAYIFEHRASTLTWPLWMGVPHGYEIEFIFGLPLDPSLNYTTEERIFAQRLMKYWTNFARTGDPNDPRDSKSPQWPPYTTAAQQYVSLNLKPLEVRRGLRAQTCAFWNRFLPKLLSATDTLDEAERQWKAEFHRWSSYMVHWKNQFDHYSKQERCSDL

Cholinesterase = Cholinesterase (Mus musculus, UniProt Q03311)
Cholinesterase, sequence (Q03311 whole entry): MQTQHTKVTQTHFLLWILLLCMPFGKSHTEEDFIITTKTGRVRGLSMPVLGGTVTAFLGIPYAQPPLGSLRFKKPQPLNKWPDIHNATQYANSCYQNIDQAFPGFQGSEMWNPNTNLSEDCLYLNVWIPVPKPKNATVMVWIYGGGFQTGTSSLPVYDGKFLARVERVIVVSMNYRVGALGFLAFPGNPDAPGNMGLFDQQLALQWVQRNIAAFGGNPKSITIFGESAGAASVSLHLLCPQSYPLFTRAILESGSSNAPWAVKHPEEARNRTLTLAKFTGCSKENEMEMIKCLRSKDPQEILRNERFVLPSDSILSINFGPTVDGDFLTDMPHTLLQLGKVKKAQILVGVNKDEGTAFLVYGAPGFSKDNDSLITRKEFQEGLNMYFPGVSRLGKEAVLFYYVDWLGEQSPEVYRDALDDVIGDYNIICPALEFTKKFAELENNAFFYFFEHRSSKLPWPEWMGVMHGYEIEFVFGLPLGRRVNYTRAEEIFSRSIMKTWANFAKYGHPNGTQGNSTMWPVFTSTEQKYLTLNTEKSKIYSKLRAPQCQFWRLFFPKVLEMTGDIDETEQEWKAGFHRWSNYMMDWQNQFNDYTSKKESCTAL
Description: Inhibition of BuChE in Swiss mouse serum using butyrylthiocholine iodide as substrate incubated for 10 mins followed by substrate addition and measured after 10 mins

C6 = assay: cells; settings: Rattus norvegicus, C6, 24 h
Description: Cytotoxicity against rat C6 cells assessed as reduction in cell viability incubated for 24 hrs by MTT assay

Vero = assay: cells; settings: Chlorocebus sabaeus, 24 h
Description: Cytotoxicity against monkey Vero cells assessed as reduction in cell viability incubated for 24 hrs by MTT assay

HepG2 = assay: cells; settings: Homo sapiens, HepG2, 24 h
Description: Cytotoxicity against human HepG2 cells assessed as reduction in cell viability incubated for 24 hrs by MTT assay

[3] = Selectivity index, ratio of IC50 for monkey Vero cells to IC50 for inhibition of BuChE in Swiss mouse serum
[4] = Selectivity index, ratio of IC50 for rat C6 cells to IC50 for inhibition of BuChE in Swiss mouse serum
[5] = Selectivity index, ratio of IC50 for human HepG2 cells to IC50 for inhibition of BuChE in Swiss mouse serum
[6] = Selectivity index, ratio of IC50 for rat C6 cells to IC50 for inhibition of AChE in Swiss mouse brain
[7] = Selectivity index, ratio of IC50 for human HepG2 cells to IC50 for inhibition of AChE in Swiss mouse brain
[8] = Selectivity index, ratio of IC50 for monkey Vero cells to IC50 for inhibition of AChE in Swiss mouse brain

Q: Which Papp at 8 h (in vitro [1]) does the source give for `CO/N=C(\C(=O)N[C@@H]1C(=O)N2C(C(=O)O)=C(CSc3nc(=O)c(=O)[nH]n3C)CS[C@H]12)c1csc(N)n1` [CEFTRIAXONE] here?
A: 0.38 ×10⁻⁶ cm/s

Q: And the Fa (in vitro [2])?
A: 99.2%

Q: Which IC50 (Acetylcholinesterase) does the source give for `c1ccc(-c2nc(-c3ccccc3)c(-c3ccccc3)[nH]2)cc1` here?
A: > 10 µM

Q: And the IC50 (Cholinesterase)?
A: > 10 µM

Q: Which IC50 (Acetylcholinesterase) does the source give for `CC1(C)O[C@H]2O[C@H](CNCCCCCn3c(-c4ccccc4)nc(-c4ccccc4)c3-c3ccccc3)[C@H](O)[C@H]2O1` here?
A: > 10 µM

Q: And the IC50 (C6)?
A: > 250 µM

Q: What about the IC50 (Cholinesterase) of the same molecule?
A: 0.28 µM

Q: What about the IC50 (Vero) of the same molecule?
A: 115 µM

Q: And the IC50 (HepG2)?
A: 116 µM

Q: Which IC50 (Acetylcholinesterase) does the source give for `CC1(C)O[C@H]2[C@@H](O1)[C@@H](CNCCCCCCCn1c(-c3ccccc3)nc(-c3ccccc3)c1-c1ccccc1)O[C@@H]1OC(C)(C)O[C@@H]12` here?
A: > 10 µM

Q: And the “Ratio IC50” value [3]?
A: 1400

Q: And the “Ratio IC50” value [4]?
A: 1400

Q: What about the IC50 (Cholinesterase) of the same molecule?
A: 0.62 µM

Q: And the “Ratio IC50” value [5]?
A: 1400

Q: For `CC1(C)O[C@H]2O[C@H](CNCCCCCCn3c(-c4ccccc4)nc(-c4ccccc4)c3-c3ccccc3)[C@H](O)[C@H]2O1`, which IC50 (Acetylcholinesterase) is on record?
A: > 10 µM

Q: And the IC50 (Cholinesterase)?
A: 0.71 µM

Q: With `CC1(C)O[C@H]2O[C@H](CNCCCCCCCCn3c(-c4ccccc4)nc(-c4ccccc4)c3-c3ccccc3)[C@H](O)[C@H]2O1` as the molecule, how does the IC50 (Acetylcholinesterase) read?
A: > 10 µM

Q: And the IC50 (Cholinesterase)?
A: 1.3 µM

Q: For `CNC(=C[N+](=O)[O-])NCCSCc1ccc(CN(C)C)o1` [RANITIDINE], which Fa (in vitro [2]) is on record?
A: 87.3%

Q: Which Fa (in vitro [2]) does the source give for `CC(C)NCC(O)COc1ccc(CC(N)=O)cc1` (centres undefined) [ATENOLOL] here?
A: 100%

Q: What does the source list for `O=c1ccc2ccccc2o1` [COUMARIN]?
A: Papp at 8 h (in vitro [1]): 26.2 ×10⁻⁶ cm/s; Fa (in vitro [2]): 87.9%

Q: Which results are given for `CC1(C)O[C@H]2O[C@H](CNCCCCCCCn3c(-c4ccccc4)nc(-c4ccccc4)c3-c3ccccc3)[C@H](O)[C@H]2O1`?
A: IC50 (Acetylcholinesterase): > 10 µM; IC50 (Cholinesterase): 0.4 µM

Q: With `CO[C@@H]1O[C@H](CNCCCCCCn2c(-c3ccccc3)nc(-c3ccccc3)c2-c2ccccc2)[C@H]2OC(C)(C)O[C@@H]12` as the molecule, how does the IC50 (Acetylcholinesterase) read?
A: > 10 µM

Q: And the IC50 (Cholinesterase)?
A: 0.4 µM

Q: Which Fa (in vitro [2]) does the source give for `CCn1cc(C(=O)O)c(=O)c2cc(F)c(N3CCNCC3)cc21` [NORFLOXACIN] here?
A: 23.5%

Q: Which Papp at 8 h (in vitro [1]) does the source give for `CO[C@@H]1O[C@H](CNCCCCCCCn2c(-c3ccccc3)nc(-c3ccccc3)c2-c2ccccc2)[C@H]2OC(C)(C)O[C@@H]12` here?
A: 2.28 ×10⁻⁶ cm/s

Q: What about the Fa (in vitro [2]) of the same molecule?
A: 20.4%

Q: What about the IC50 (Acetylcholinesterase) of the same molecule?
A: 2.75 µM

Q: And the “Ratio IC50” value [3]?
A: 500

Q: What about the IC50 (C6) of the same molecule?
A: > 250 µM

Q: What about the “Ratio IC50” value [4] of the same molecule?
A: 500

Q: And the “Ratio IC50” value [6]?
A: 90

Q: And the IC50 (Cholinesterase)?
A: 0.5 µM

Q: What about the IC50 (Vero) of the same molecule?
A: > 250 µM

Q: And the “Ratio IC50” value [7]?
A: 90

Q: What about the “Ratio IC50” value [8] of the same molecule?
A: 90

Q: And the IC50 (HepG2)?
A: > 250 µM

Q: And the “Ratio IC50” value [5]?
A: 500

Q: What does the source list for `CC1(C)O[C@H]2O[C@H](CNCCCCn3c(-c4ccccc4)nc(-c4ccccc4)c3-c3ccccc3)[C@H](O)[C@H]2O1`?
A: IC50 (Acetylcholinesterase): > 10 µM; IC50 (Cholinesterase): 0.3 µM

Q: Which Papp at 8 h (in vitro [1]) does the source give for `CC1(C)O[C@H]2[C@@H](O1)[C@@H](CNCCCCCCn1c(-c3ccccc3)nc(-c3ccccc3)c1-c1ccccc1)O[C@@H]1OC(C)(C)O[C@@H]12` here?
A: 0.54 ×10⁻⁶ cm/s

Q: And the Fa (in vitro [2])?
A: 5.9%

Q: What about the IC50 (Acetylcholinesterase) of the same molecule?
A: > 10 µM

Q: What about the IC50 (C6) of the same molecule?
A: > 250 µM

Q: What about the IC50 (Cholinesterase) of the same molecule?
A: 0.17 µM

Q: And the IC50 (Vero)?
A: > 250 µM

Q: And the IC50 (HepG2)?
A: > 250 µM
